Assay [1] has as its system Skin Tumor Cell (A2058 cell strain). Kind of assay: MTT cell viability assay. It is filed as cell-based. The settings on record: Homo sapiens. Background: Formazan colour is commonly taken as a measure of viable cells.
Assay [2] relates to E-cadherin and Vimentin in MDA-MB-231 cells. Kind of assay: E-cadherin Luciferase activity / immunocytochemical analysis (ICC). The class given is cell-based, human. The source says: Thus, taking the MDA-MB-231 cell as an example, the expression results of E-cadherin and Vimentin in the cell were observed. FIG. 6 is a quantitative analysis diagram showing Luciferase activity of E-cadherin obtained from a primary antibody E-cadherin by an immunocytochemical analysis (ICC). In FIG. 6, a transformed cell strain only including an empty vector (pC3.1) is the negative control, and a cell strain including no compound II is the background control, the translational activity is defined as 100%. ICC includes embedding the tumor cells in paraffin and slicing the embedded cells into slides having a thickness of […] by a slicer, deparaffinizing, rehydrating and renaturating, picking the slide out and putting the slide into the primary antibody E-cadherin; reacting for 1.5 h and washing the slide for three times with PBS, reacting with the secondary antibody for 30 min and washing the slide for three times with PBS, staining the slide with 3′,3′-diaminobenzendine (DAB) at a ratio of 1:30, and the slide was mounted with Entellanz.

The subject of assay [3] is breast tumor cells MDA-MB-231. Kind of assay: wound scratching assay (cell migration). The class given is cell-based, human. As for the experimental part:
Referring to FIG. 14, the wound scratching assay was performed to analysis effect of the compound II in different doses on tumor cell metastasis. In the wound scratching assay for observing cell migration, the cells MDA-MB-231 (3×10^5) were planted in a 12-well plate, and the next day the cells were washed with PBS twice. The original culture medium then was replaced by 1% FBS cell culture medium. The next day a space was scratched at the bottom of the well. The cell culture medium was removed and the cells were washed with PBS twice. 1% FBS cell culture medium and the compound II of different concentrations were added and photographs were taken after 0, 12, 24 and 36 h so as to observe migration of cells. After the reaction, the cells were fixed for 30 min using 75% ice alcohol. After the alcohol was completely volatilized, the cells were stained with Giemsa Stain. The migration number of cells was counted in three random fields (200×) under the microscope (Lin et al., 2008). […] After the breast tumor cells were treated for 0, 12, 24 and 36 h, the quantitative result of effect of the compound II on metastasis of breast tumor cells MDA-MD-231 was observed, and the data results were represented by mean±SD values, where n=3.

Assay [4] deals with MMP-9 and MMP2 generated by cells induced by TNF-α. Briefly: Zymography enzyme activity assay of cells stimulated by TNF-α. It is filed as cell-based. The settings on record: 20 μM, 10 ng/mL TNF-α. The method, then:
In the Zymography enzyme activity assay, the cells (1×10^6) were planted in a 6-well plate. The next day after the cells were adhered to the wall, the cells were cultured in a serum free DMEM culture medium at an atmosphere of 5% CO2 in an incubator at 37° C. for 24 h. The compound II in different doses were added into the DMEM culture medium. In other test groups, the compound I was added, TNF-α/TGF-β were added or the compound I and TNF-α/TGF-β were added into the DMEM culture medium, wherein the concentration of compound I and TNF-α/TGF-β were […] and 10 ng/ml, respectively. The cells were cultured in the culture medium for 2 h and then washed with PBS. The cell culture medium was putted into a microcentrifuge tube and centrifuged for 10 min at 1500 rpm. The supernatant was taken to perform a protein gel electrophoresis (SDS-PAGE), so as to separate the proteins. Afterwards, the Gelatin or Casein was regarded as the substrate to analysis the enzyme activity of the proteins. Referring to FIG. 20, the Zymography enzyme activity assay was performed to detect the effect of the compound II on the enzyme activity of MMP-9 and MMP2 generated by cells induced and stimulated by 10 ng/mL TNF-α. The Zymography enzyme activity assay was described as the test example 4-1. […] Cells in the test groups included no the compound II. […]

In assay [5] the test system is Her-2/neu, p-Tyrosine, PI3K and Akt in breast tumor cells MDA-MB-453. Kind of assay: western blotting of Her-2/neu-related proteins. The class given is cell-based, human. The method, then: The steps of western blotting include: washing cells with PBS twice at 4° C.; adding a lysis buffer and rubbing the cells by a rubbr policeman so as to lyse cells; putting the lysed cell solution into a 1.5 ml microcentrifuge tube and shaking for 1 min; centrifuging at 12000 rpm for 10 min and taking the supernatant; measuring concentration of the protein through a Bio-Rad protein assay kit; and storing the remained extracted protein solution at −70° C.; taking 100 μg protein solution and adding a SDS/protein loading buffer having the same volume, where the SDS/protein loading buffer has a concentration two times larger than the protein solution; boiling the mixture of the protein solution and the SDS/protein loading buffer at 100° C. for 10 min; cooling and loading the protein samples in each hole of gel; adjusting the voltage to 100 V and running the protein samples on the gel until the tracking dye in the sample buffer reaches the bottom of the gel; and subsequently transferring the protein from the gel using electrophoresis. A PVDF membrane was soaked in methanol until the paper was totally wet. The paper was arranged in a transfer tank placed in a 4° C. ice box, and the protein transfer was performed at a current of […] for 4 h. The PVDF membrane was then taken out, placed in a PBS blocking solution including 1% BSA and shaken for 2 h. Then the PVDF membrane was placed in a blocking solution including a primary antibody and slowly shaken at 100 rpm for 1 h at the room temperature. […] Then luminescence image equipment was used, where the PVDF was placed onto a black metal plate by a plastic pincer and the face including protein was upwards, a 1:1 mixed Chemiluminesent Substrate was added into the membrane and the exposure time depends on the fluorescence intensity of antibodies. […] FIG. 22 illustrates expression results of Her-2/neu-related proteins used for facilitating survival of tumor cells when compounds of formula (I) in different doses were added, which were detected by the western blotting. […]
(In general: A western blot detects proteins with antibodies after separation by electrophoresis.)

For assay [6], the system named is Ovarian Tumor Cell (SKOV3 cell strain). Kind of assay: MTT cell viability assay. The class given is cell-based. The settings on record: Homo sapiens, SK-OV-3.

By IC50 is commonly meant the concentration at which inhibition is half-maximal. A low value points to greater potency in that assay. `COC1=C(OC)C(=O)C(C)=C(C)C1=O` [compound II]: the IC50 was determined as 23.6 µM in assay [1] and 15.3 µM in assay [6]. Further, the expression of vimentin entry in assay [2] (MDA-MB-231) was “inhibit expression of vimentin”. Besides, the “expression amount of E-cadherin in the cytoplasm” value in assay [2] (MDA-MB-231, with dose increasing, FIG. 6) is “increased”. Moreover, in assay [3] (0.5 μM, in 12-24 h), the “breast tumor cells migrated” value is listed as 60-70%. For the same compound, the “migration capability of breast tumor cells” value in assay [3] (concentration above 1 μM) was “significantly inhibited”. Besides, in assay [4], the “enzyme activity of MMP2” value is given as “no enzyme activity”. The “expression of Her-2/neu and p-Tyrosine” value in assay [5] (40 μM) was “totally inhibited”. Also, the “expression amount of p-Tyrosine activated by Her-2/neu” value in assay [5] (10-60 μM, with increasing concentration) is given as “significantly decreased”. The “protein expression of PI3K and Akt” value in assay [5] (high concentration) is recorded as “inhibited”.

(Values after US20150087722A1, “TREATMENT FOR BREAST TUMOR CELL METASTASIS” (China Medical University, priority 2012, published 2015).)
